The text below walks through data of ChEMBL document CHEMBL2417475, “Synthesis and SAR studies of marine natural products ma'edamines A, B and their analogues” (Bioorg Med Chem Lett, 2013).

Holding throughout (format): functional, cell-based
Assay [1] concerns CAMA-1. Nature of the assay: Antiproliferative activity against human progesterone receptor and HER2 deficient CAMA1 cells expressing estrogen receptor after 72 hrs by MTT assay. The conditions noted are these: CAMA-1, 72 h. Background: Tetrazolium assays rely on reduction of a dye to a coloured formazan, in cell work by metabolically active cells.
Assay [2] deals with SK-BR-3. Nature of the assay: Antiproliferative activity against human estrogen receptor and progesterone receptor deficient SKBR3 cells expressing HER2 after 72 hrs by MTT assay. The conditions noted are these: SK-BR-3, 72 h.
For assay [3], the system named is T47D. Nature of the assay: Antiproliferative activity against human HER2 deficient T47D cells expressing estrogen receptor and progesterone receptor after 72 hrs by MTT assay.

Consider `CN(C)CCCOc1c(Br)cc(-c2c[nH]c(=O)c(Cc3ccc(O)c(Br)c3)n2)cc1Br`, for which the IC50 came out at 6.67 µM in assay [1], 5.67 µM in assay [2] and 4.77 µM in assay [3].
The corresponding values for `COc1ccc(Cc2nc(-c3cc(Br)c(OCCN(C)C)c(Br)c3)c[nH]c2=O)cc1Br` are more than 10 µM, 5.73 µM and 5.67 µM.
For the compound `CN(C)CCCOc1c(Br)cc(-c2c[nH]c(=O)c(Cc3c[nH]c4ccccc34)n2)cc1Br`, the IC50 in assay [1] was more than 10 µM; in assay [2], 7 µM; in assay [3], 6.33 µM.
In the same order, the values of `COc1ccc(Cc2nc(-c3cc(Br)c(O)c(Br)c3)cnc2Cl)cc1Br` are more than 10 µM, more than 10 µM and more than 10 µM.
In the same order, the values of `COc1ccc(Cc2nc(-c3cc(Cl)c(OCCCN(C)C)c(Cl)c3)c[nH]c2=O)cc1Cl` are more than 10 µM, more than 10 µM and more than 10 µM.
In the same order, the values of `CNCCCOc1c(Br)cc(-c2c[nH]c(=O)c(Cc3ccc(OC)c(Br)c3)n2)cc1Br` [Ma'edamine B] are 5.77 µM, 4 µM and 6 µM.
Regarding `CN(C)CCCOc1ccc(-c2c[nH]c(=O)c(Cc3c[nH]c4ccccc34)n2)cc1`, the half-inhibitory concentration (IC50) in assay [1] and in assay [2] was more than 20 µM in each case.
With `CS(=O)(=O)CCNCc1ccc(-c2ccc3ncnc(Nc4ccc(OCc5cccc(F)c5)c(Cl)c4)c3c2)o1` [LAPATINIB], the results for the IC50 in assay [1], in assay [2] and in assay [3] were more than 10 µM, 5.05 µM and more than 10 µM, respectively.
Regarding `COc1ccc(Cc2nc(-c3ccc(OCCCN4CCOCC4)cc3)c[nH]c2=O)cc1`, the 50% inhibitory concentration (IC50) in assay [1], in assay [2] and in assay [3] was more than 10 µM throughout.
Turning to `CNCCCOc1c(Br)cc(-c2c[nH]c(=O)c(Cc3ccccc3)n2)cc1Br`, the half-maximal inhibitory concentration (IC50) in assay [1], in assay [2] and in assay [3] was more than 10 µM in each case.
Regarding `COc1ccc(Cc2nc(-c3cc(Br)c(OCCCCN(C)C)c(Br)c3)c[nH]c2=O)cc1Br`, the IC50 in assay [1], in assay [2] and in assay [3] was more than 10 µM in each case.
`O=c1[nH]cc(-c2ccccc2)nc1Cc1ccccc1`: the IC50 in assay [1], in assay [2] and in assay [3] was more than 10 µM throughout.
For the compound `CNCCCOc1ccc(-c2c[nH]c(=O)c(Cc3c[nH]c4ccccc34)n2)cc1`, the 50% inhibitory concentration (IC50) in assay [1] and in assay [2] was more than 20 µM in each case.
`COc1ccc(Cc2nc(-c3ccc(OCCCN(C)C)cc3)c[nH]c2=O)cc1`: the IC50 in assay [1], in assay [2] and in assay [3] was more than 10 µM throughout.
For the compound `CN(C)CCCOc1c(Br)cc(-c2c[nH]c(=O)c(Cc3ccccc3)n2)cc1Br`, the IC50 was determined as 7.1 µM in assay [1], 5.5 µM in assay [2] and 6.33 µM in assay [3].
In the same order, the values of `CNCCCOc1c(Br)cc(-c2c[nH]c(=O)c(Cc3c[nH]c4ccccc34)n2)cc1Br` are 5.77 µM, 4.33 µM and 4 µM.
In the same order, the values of `CNCCOc1c(Br)cc(-c2c[nH]c(=O)c(Cc3ccc(OC)c(Br)c3)n2)cc1Br` are more than 10 µM, 8.1 µM and 6.18 µM.
On to `COc1ccc(Cc2nc(-c3cc(Br)c(OCCCCN4CCOCC4)c(Br)c3)c[nH]c2=O)cc1Br`, for which the 50% inhibitory concentration (IC50) in assay [1], in assay [2] and in assay [3] was more than 10 µM throughout.
With `CC(C)c1nc(-c2cc(Br)c(OCCCN(C)C)c(Br)c2)c[nH]c1=O`, the IC50 in assay [1], in assay [2] and in assay [3] was more than 10 µM throughout.
Consider `COc1ccc(Cc2nc(-c3cc(Br)c(OCCCN4CCOCC4)c(Br)c3)c[nH]c2=O)cc1Br`, for which the IC50 in assay [1], in assay [2] and in assay [3] was more than 10 µM in each case.
Consider `CCN(CC)CCCOc1c(Br)cc(-c2c[nH]c(=O)c(Cc3ccc(OC)c(Br)c3)n2)cc1Br`, for which the results for the IC50 in assay [1], in assay [2] and in assay [3] were 5.23 µM, 6 µM and more than 10 µM, respectively.
The corresponding values for `COc1ccc(Cc2nc(-c3cc(Br)c(OCCCN(C)C)c(Br)c3)c[nH]c2=O)cc1Br` [Ma'edamine A] are more than 10 µM, more than 10 µM and more than 10 µM.
The corresponding values for `COc1ccc(Cc2nc(-c3ccc(OCCCCN(C)C)cc3)c[nH]c2=O)cc1` are more than 10 µM, more than 10 µM and more than 10 µM.

What is called IC50 is the concentration needed to halve the response being measured. A high value points to weaker potency in that assay.
